Patent publication US20090098139A1, “Combination therapy for the treatment of neovascular disorders” (priority 2006, published 2009)

Columns and labels:
[1] = system: animal counterpart of isoform 165; assay: preclinical animal studies: abnormal blood vessel growth in the retina; assay type: in vivo; conditions: binding to animal counterpart of VEGF isoform 165
[2] = system: animal counterpart of isoform 121; assay: preclinical binding to VEGF isoform 121 counterpart; conditions: preclinical in vitro and animal studies
[3] = system: normal vessels of the retina; assay: animal study, direct comparison with a VEGF inhibitor that blocks all isoforms: normal retinal vessels; assay type: in vivo; conditions: the pan-VEGF isoform inhibitor comparator altered their growth and survival

pegaptanib sodium [Macugen]
inhibition of abnormal blood vessel growth in the retina [1]: highly effective in inhibiting abnormal blood vessel growth in the retina
binding with the animal counterpart of isoform 121 [2]: did not bind with the animal counterpart of isoform 121 to any significant degree
effect on the normal vessels of the retina [3]: did not affect the normal vessels of the retina
